Test results taken from ChEMBL document CHEMBL1128066, “Synthesis and antiviral activity of dihydroxycyclohexyl pyrimidine and purine carbocyclic nucleosides” (Bioorg Med Chem Lett, 1995).
One block for each compound: values may come before it.

Columns and labels:
Type in all cases: functional, cell-based
PEU [1] = assay: Compound was tested for its overt cytotoxicity in virus free PEU cell culture; conditions: Homo sapiens
Vero [2] = assay: Antiviral activity was evaluated by the plaque reduction method against Herpes virus 2 (HSV-2) in Vero cells; conditions: Chlorocebus sabaeus
PEU [3] = assay: Antiviral activity was evaluated by the plaque reduction method against Cytomegalovirus (CMV) in PEU cells; conditions: Homo sapiens
Vero [4] = assay: Antiviral activity was evaluated by the plaque reduction method against Herpes virus 1 (HSV-1) in Vero cells; conditions: Chlorocebus sabaeus

SMILES: Nc1ncnc2c1ncn2C1CCC(OCc2ccccc2)CC1O (configuration not stated)
IC50 (PEU [1]): > 250 µM | EC50 (Vero [2]): 16.2 µM | EC50 (PEU [3]): 147 µM | EC50 (Vero [4]): 16.8 µM

SMILES: Nc1nc(O)c2ncn(C3CCC(O)CC3O)c2n1 (configuration not stated)
IC50 (PEU [1]): > 250 µM | EC50 (Vero [2]): 188 µM | EC50 (PEU [3]): 188 µM | EC50 (Vero [4]): 188 µM

SMILES: Nc1ncnc2c1ncn2C1CCC(O)CC1O (configuration not stated)
IC50 (PEU [1]): > 250 µM | EC50 (Vero [2]): 30 µM | EC50 (PEU [3]): 200 µM | EC50 (Vero [4]): 28.5 µM

The next compounds have a lower EC50 (PEU [3]) than those just listed; values first:

EC50 (PEU [3]): 0.97 µM
SMILES: O=c1ccn(C2CC(O)CCC2O)c(=O)[nH]1 (configuration not stated)
IC50 (PEU [1]): > 250 µM | EC50 (Vero [2]): 0.97 µM | EC50 (Vero [4]): 10 µM

EC50 (PEU [3]): 10 µM
SMILES: O=c1ccn([C@@H]2C[C@@H](OCc3ccccc3)CC[C@H]2O)c(=O)[nH]1
IC50 (PEU [1]): > 250 µM | EC50 (Vero [2]): 10 µM | EC50 (Vero [4]): 10 µM

EC50 (PEU [3]): 140 µM
SMILES: Nc1nc(O)c2ncn(C3CCC(OCc4ccccc4)CC3O)c2n1 (configuration not stated)
IC50 (PEU [1]): > 250 µM | EC50 (Vero [2]): 22.1 µM | EC50 (Vero [4]): 21.2 µM

EC50 (PEU [3]): 10 µM
SMILES: O=c1ccn(C2CCC(O)CC2O)c(=O)[nH]1 (configuration not stated)
IC50 (PEU [1]): > 250 µM | EC50 (Vero [2]): 0.97 µM | EC50 (Vero [4]): 0.97 µM

EC50 (PEU [3]): 10 µM
SMILES: O=c1ccn([C@@H]2CC[C@H](OCc3ccccc3)C[C@H]2O)c(=O)[nH]1
IC50 (PEU [1]): > 250 µM | EC50 (Vero [2]): 158 µM | EC50 (Vero [4]): 158 µM
